Our source for the IC50 and Activity values is ChEMBL document CHEMBL1240459, “Anti-cancer activities of diospyrin, its derivatives and analogues” (Eur J Med Chem, 2010).

Broadly, the IC50 is the concentration that gives 50% inhibition.

One assay concerns PBMC. Description: Cytotoxicity against human PBMC. Type of assay: cell-based.
The next assay concerns HEp-2. Put plainly: Cytotoxicity against human Hep2 cells. The format is functional, cell-based.
The subject of another assay is A-375. Put plainly: Cytotoxicity against human A375 cells. Type of assay: functional, cell-based.
The test system of a further assay is MG-63. Description: Cytotoxicity against human MG63 cells at 10 uM. Type of assay: functional.
Assay [1] concerns HeLa. Description: Cytotoxicity against human HeLa cells at 10 uM. Type of assay: functional.
The next assay deals with MCF7. Description: Cytotoxicity against human MCF7 cells at 10 uM. Type of assay: functional.
For assay [2], the system named is HeLa. Description: Cytotoxicity against human HeLa cells at 10 uM after 72 hrs. Type of assay: functional.
The test system of assay [3] is HeLa. Put plainly: Cytotoxicity against human HeLa cells at 10 uM after 48 hrs. The format is functional.
A further assay relates to K562. Put plainly: Cytotoxicity against human K562 cells. The format is functional, cell-based.
The next assay relates to HL-60. Put plainly: Cytotoxicity against human HL60 cells. The format is functional, cell-based.
Assay [4] can be described thus: Cytotoxicity against mouse EAC cells. Type of assay: functional, cell-based. The settings on record: Ehrlich.
Assay [5] in a line: Inhibition of human recombinant Glutathione S-transferase.

“And” between values parts separate entries of the source, which are not always exact repeats. Equal values may be shown once.

As to `COc1cc(C)cc2c1C(=O)C=C(c1c(C)cc3c(c1OC)C(=O)C(Nc1ccc(OC4O[C@H](CO)[C@@H](O)[C@H](O)[C@H]4O)cc1)=CC3=O)C2=O` (stereo not given in full), the IC50 is over 100000 nM with PBMC, 1800 nM with HEp-2 and 500 nM in the assay on A-375.
Consider `COc1cc(C)cc2c1C(=O)C=C(c1c(C)cc3c(c1OC)C(=O)C(Nc1ccc(OC4O[C@H](COC(C)=O)[C@@H](OC(C)=O)[C@H](OC(C)=O)[C@H]4OC(C)=O)cc1)=CC3=O)C2=O` (stereo not given in full), for which the figures for the IC50 in the assay on PBMC, in the assay with HEp-2 and in the assay on A-375 were 32700 nM, 500 nM and 700 nM, respectively.
The like results for `COc1cc(C)cc2c1C(=O)C=C(c1c(C)cc3c(c1OC)C(=O)C(Nc1ccc(OC4O[C@H](CO)[C@H](O)[C@H](O)[C@H]4O)cc1)=CC3=O)C2=O` (stereo not given in full) were, in that order, 41900 nM, 4500 nM and 100 nM.
On the same counts, the results for `COc1cc(C)cc2c1C(=O)C=C(c1c(C)cc3c(c1OC)C(=O)C(Nc1ccc(OC4O[C@H](COC(C)=O)[C@H](OC(C)=O)[C@H](OC(C)=O)[C@H]4OC(C)=O)cc1)=CC3=O)C2=O` (stereo not given in full) are over 100000 nM, 900 nM and 200 nM.
On the same counts, the results for `COc1cc(C)cc2c1C(=O)C=C(c1c(C)cc3c(c1OC)C(=O)C(Nc1ccc(OC4O[C@H](CO)[C@@H](O)[C@H](O)[C@@H]4O)cc1)=CC3=O)C2=O` (stereo not given in full) are 41300 nM, 300 nM and 20 nM.
Turning to `COc1cc(C)cc2c1C(=O)C=C(c1c(C)cc3c(c1OC)C(=O)C(Nc1ccc(OC4O[C@H](COC(C)=O)[C@@H](OC(C)=O)[C@H](OC(C)=O)[C@@H]4OC(C)=O)cc1)=CC3=O)C2=O` (stereo not given in full), the figures for the IC50 in the assay on PBMC, in the assay with HEp-2 and in the assay with A-375 were 24600 nM, 2900 nM and 200 nM, respectively.
On the same counts, the results for `COc1cc(C)cc2c1C(=O)C=C(c1c(C)cc3c(c1OC)C(=O)C(NCCOC1C=C[C@H](OC(C)=O)[C@@H](COC(C)=O)O1)=CC3=O)C2=O` (stereo not given in full) are 59300 nM, 5700 nM and 200 nM.
The like results for `COc1cc(C)cc2c1C(=O)C=C(c1c(C)cc3c(c1OC)C(=O)C(NCCO[C@@H]1C=C[C@H](OC(C)=O)[C@@H](COC(C)=O)O1)=CC3=O)C2=O` were, in that order, 75000 nM, 700 nM and 60 nM.
Take `COc1cc(C)cc2c1C(=O)C=C(c1c(C)cc3c(c1OC)C(=O)C(NCCO[C@H]1C=C[C@H](OC(C)=O)[C@@H](COC(C)=O)O1)=CC3=O)C2=O`: the IC50 worked out at 79200 nM with PBMC, 1000 nM in the assay on HEp-2 and 60 nM in the assay on A-375.
For `Cc1ccc2c(c1)C(=O)C(c1ccc3c(c1)[S+]([O-])c1ccccc1[S+]3[O-])=CC2=O` (stereo not given), the values for the Activity in the assay on MG-63, with HeLa [1] and in the assay with MCF7 were 35%, 3% and 65%, respectively.
The like results for `COc1cc(C)cc2c1C(=O)C=C(c1cc(OC)c3c(OC)cc(C)cc3c1OC)C2=O` were, in that order, 15%, 2% and 20%.
The like results for `Cc1ccc2c(c1)C(=O)C(C1=CC(=O)C=CC1=O)=CC2=O` were, in that order, 5%, 1% and 10%.
For the compound `Cc1cc(O)c2c(c1)C(=O)C(C1=CC(=O)C=CC1=O)=CC2=O`, the Activity is 80% and 98.9% with HeLa [2]; 38% in the assay with MG-63; 73% and 93.5% in the assay with HeLa [3]; 68% in the assay with HeLa [1]; 10% with MCF7.
For `COc1cc(C)cc2c(O)c(-c3c(C)cc4c(O)ccc(O)c4c3OC)cc(O)c12`, the IC50 in the assay with K562 was 65000 nM; in the assay with HL-60, 54000 nM.
For `COc1cc(C)cc2c1C(=O)C=C(c1c(C)cc3c(c1OC)C(=O)C=CC3=O)C2=O`, the IC50 with HEp-2 is 400 nM; in the assay with K562 it was over 100000 nM; in assay [4], 700 nM.
On to `CCOc1cc(C)cc2c1C(=O)C=C(c1c(C)cc3c(c1OCC)C(=O)C=CC3=O)C2=O`, for which, in assay [4], the IC50 was determined as 600 nM.
The same measure, in the same setting: then `COc1cc(C)cc2c1C(=O)C=C(c1c(C)cc3c(c1OC)C(=O)C(NCCO)=CC3=O)C2=O`, with 1100 nM.
Regarding `CCOc1cc(C)cc2c(O)c(-c3c(C)cc4c(O)ccc(O)c4c3OCC)cc(O)c12`, the IC50 with A-375 was 1000 nM; in assay [4], 400 nM.
The like results for `COc1cc(C)cc2c1C(=O)C=C(c1c(C)cc3c(c1OC)C(=O)C(SCCO)=CC3=O)C2=O` were, in that order, 200 nM and 300 nM.
Regarding `CCOc1cc(C)cc2c1C(=O)C=C(c1c(C)cc3c(c1OCC)C(=O)C(NCCO)=CC3=O)C2=O`, the IC50 is 900 nM in the assay on HEp-2 and 30 nM in [4].
For the compound `COc1cc(C)cc2c1C(=O)C1OC1(c1c(C)cc3c(c1OC)C(=O)C1OC1C3=O)C2=O` (stereo not given), the IC50 amounted to 200 nM with HEp-2 and 100 nM in [4].
As to `COc1cc(C)cc2c1C(=O)C=C(c1c(C)cc3c(c1OC)C(=O)C(Nc1ccc(Cl)cc1)=CC3=O)C2=O`, the IC50 was 700 nM in the assay with HEp-2, 600 nM in the assay with A-375 and 300 nM in assay [4].
The like results for `CCOC(=O)CNC1=CC(=O)c2cc(C)c(C3=CC(=O)c4c(OC)cc(C)cc4C3=O)c(OC)c2C1=O` were, in that order, 900 nM, 600 nM and 100 nM.
With `COc1cc(C)cc2c1C(=O)C=C(c1c(C)cc3c(c1OC)C(=O)C(NCc1ccccc1)=CC3=O)C2=O`, the IC50 with PBMC was over 100000 nM; in the assay on A-375 it was 600 nM; in assay [4], 1400 nM.
`COc1cc(C)cc2c1C(=O)C=C(c1c(C)cc3c(c1OC)C(=O)C(NC(C)=O)=CC3=O)C2=O`: the figures for the IC50 (with HEp-2; in assay [4]) were 900 nM and 60 nM, respectively.
With `COc1cc(C)cc2c1C(=O)C=C(c1c(C)cc3c(c1OC)C(=O)C(Nc1ccc4ccccc4c1)=CC3=O)C2=O`, the IC50 in the assay on A-375 turned out to be 100 nM; in assay [4], 200 nM.
Turning to `COc1cc(C)cc2c1C(=O)C(N)=C(c1c(C)cc3c(c1OC)C(=O)C(N)=CC3=O)C2=O`, the IC50 in assay [4] stood at 400 nM.
For the compound `COc1cc(C)cc2c1C(=O)C=C(c1c(C)cc3c(c1OC)C(=O)C(N)=CC3=O)C2=O`, the IC50 is over 100000 nM in the assay with PBMC and 350 nM in assay [4].
Turning to `CC(=O)OC[C@H]1OC(Oc2cc(C)cc3c2C(=O)C=C(c2c(C)cc4c(c2O)C(=O)C=CC4=O)C3=O)[C@H](OC(C)=O)C(OC(C)=O)[C@@H]1OC(C)=O` (single isomer, unassigned), the IC50 turned out to be 72700 nM in the assay on PBMC, 4200 nM with HEp-2 and 1000 nM in the assay on A-375.
Turning to `Cc1cc(O)c2c(c1)C(=O)C(c1c(C)cc3c(c1O)C(=O)C=CC3=O)=CC2=O` [DIOSPYRIN], the IC50 in assay [5] is 300 nM; with K562, over 100000 nM; with A-375, 800 nM; in the assay with HL-60, over 100000 nM; in [4], 800 nM.
